Data from PubChem BioAssay (NCI).
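Grown in 96-well plates, cells were treated for 48 hours with each compound at five concentrations. Insufficient inhibition: endpoint recorded as highest concentration tested. At the TGI there is no net growth.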

Legend:
Experiment in all cases: growth of human tumour cells (NCI), 48 h
LOX IMVI melanoma = system: LOX IMVI melanoma
DU-145 prostate = system: DU-145 prostate
CAKI-1 renal = system: CAKI-1 renal
BT-549 breast = system: BT-549 breast
OVCAR-5 ovarian = system: OVCAR-5 ovarian
SK-MEL-28 melanoma = system: SK-MEL-28 melanoma
HOP-92 NSCLC = system: HOP-92 NSCLC
MDA-N = system: MDA-N
COLO 205 colon = system: COLO 205 colon
HCC-2998 colon = system: HCC-2998 colon
NCI-H23 lung = system: NCI-H23 lung
SF-295 CNS = system: SF-295 CNS
UO-31 renal = system: UO-31 renal
OVCAR-8 ovarian = system: OVCAR-8 ovarian
MDA-MB-435 = system: MDA-MB-435
U251 CNS = system: U251 CNS
MALME-3M melanoma = system: MALME-3M melanoma
HL-60(TB) leukemia = system: HL-60(TB) leukemia

Cc1c[nH]c(C(=O)O)c1-c1cccn1-c1ccc(Cl)cc1[N+](=O)[O-]
TGI (LOX IMVI melanoma): > 100 µM
TGI (DU-145 prostate): > 100 µM
TGI (CAKI-1 renal): > 100 µM
TGI (BT-549 breast): > 100 µM
TGI (OVCAR-5 ovarian): > 100 µM
TGI (SK-MEL-28 melanoma): > 100 µM
TGI (HOP-92 NSCLC): > 100 µM
TGI (MDA-N): > 100 µM
TGI (COLO 205 colon): > 100 µM
TGI (HCC-2998 colon): > 100 µM
TGI (NCI-H23 lung): > 100 µM
TGI (SF-295 CNS): > 100 µM
TGI (UO-31 renal): > 100 µM
TGI (OVCAR-8 ovarian): > 100 µM
TGI (MDA-MB-435): > 100 µM
TGI (U251 CNS): > 100 µM

COc1ccc2c(c1)c1c(n2CCN2CCOCC2)-c2cccc(OC)c2CC1
TGI (DU-145 prostate): > 100 µM
TGI (CAKI-1 renal): > 100 µM
TGI (BT-549 breast): > 100 µM
TGI (OVCAR-5 ovarian): > 100 µM
TGI (SK-MEL-28 melanoma): > 100 µM
TGI (HOP-92 NSCLC): > 100 µM
TGI (MDA-N): > 100 µM
TGI (COLO 205 colon): 28.5 µM
TGI (HCC-2998 colon): 63.4 µM
TGI (NCI-H23 lung): > 100 µM
TGI (SF-295 CNS): > 100 µM
TGI (UO-31 renal): > 100 µM
TGI (OVCAR-8 ovarian): > 100 µM
TGI (MALME-3M melanoma): 66.3 µM
TGI (MDA-MB-435): > 100 µM
TGI (U251 CNS): > 100 µM

N#CCCN(CCC#N)c1ccc(C(N=Nc2ccc(Cl)cc2)=Nc2ccccc2)cc1
TGI (DU-145 prostate): 26.9 µM
TGI (CAKI-1 renal): 26.1 µM
TGI (BT-549 breast): 16.6 µM
TGI (OVCAR-5 ovarian): 26 µM
TGI (SK-MEL-28 melanoma): 30 µM
TGI (HOP-92 NSCLC): 32.3 µM
TGI (MDA-N): 22.8 µM
TGI (COLO 205 colon): 12.4 µM
TGI (HCC-2998 colon): 20.6 µM
TGI (NCI-H23 lung): 25.7 µM
TGI (SF-295 CNS): 12 µM
TGI (UO-31 renal): 21.3 µM
TGI (OVCAR-8 ovarian): 28.7 µM
TGI (MDA-MB-435): 27.5 µM
TGI (U251 CNS): 32.4 µM

COC(=O)[C@H](Cc1ccccc1)NC(=O)N(CCC#N)CCCCN(CCC#N)C(=O)N[C@@H](Cc1ccccc1)C(=O)OC
TGI (LOX IMVI melanoma): > 100 µM
TGI (DU-145 prostate): > 100 µM
TGI (CAKI-1 renal): > 100 µM
TGI (BT-549 breast): > 100 µM
TGI (OVCAR-5 ovarian): > 100 µM
TGI (SK-MEL-28 melanoma): > 100 µM
TGI (HOP-92 NSCLC): > 100 µM
TGI (MDA-N): > 100 µM
TGI (COLO 205 colon): > 100 µM
TGI (HCC-2998 colon): > 100 µM
TGI (NCI-H23 lung): > 100 µM
TGI (SF-295 CNS): > 100 µM
TGI (UO-31 renal): > 100 µM
TGI (OVCAR-8 ovarian): > 100 µM
TGI (MALME-3M melanoma): > 100 µM
TGI (MDA-MB-435): > 100 µM
TGI (U251 CNS): > 100 µM

O=C(O)Cc1ccc(Nc2nc3ccccc3nc2C(=O)O)cc1
TGI (LOX IMVI melanoma): > 100 µM
TGI (DU-145 prostate): > 100 µM
TGI (CAKI-1 renal): > 100 µM
TGI (BT-549 breast): > 100 µM
TGI (OVCAR-5 ovarian): > 100 µM
TGI (SK-MEL-28 melanoma): > 100 µM
TGI (HOP-92 NSCLC): > 100 µM
TGI (MDA-N): > 100 µM
TGI (HL-60(TB) leukemia): > 100 µM
TGI (COLO 205 colon): > 100 µM
TGI (NCI-H23 lung): > 100 µM
TGI (SF-295 CNS): > 100 µM
TGI (UO-31 renal): > 100 µM
TGI (OVCAR-8 ovarian): > 100 µM
TGI (MALME-3M melanoma): > 100 µM
TGI (MDA-MB-435): > 100 µM
TGI (U251 CNS): > 100 µM

Cc1ccc(/C=C/C(=N/NC(=O)N/N=C(/C=C/c2ccc(C)cc2)C(C)C)C(C)C)cc1
TGI (DU-145 prostate): > 10 µM
TGI (CAKI-1 renal): > 10 µM
TGI (BT-549 breast): > 10 µM
TGI (OVCAR-5 ovarian): > 10 µM
TGI (HOP-92 NSCLC): > 10 µM
TGI (MDA-N): > 10 µM
TGI (HL-60(TB) leukemia): > 10 µM
TGI (COLO 205 colon): > 10 µM
TGI (HCC-2998 colon): > 10 µM
TGI (NCI-H23 lung): > 10 µM
TGI (SF-295 CNS): > 10 µM
TGI (UO-31 renal): > 10 µM
TGI (OVCAR-8 ovarian): > 10 µM
TGI (MALME-3M melanoma): > 10 µM
TGI (MDA-MB-435): > 10 µM
TGI (U251 CNS): > 10 µM

COc1cccc2c1C1(O)C2CCCCCCCCCC12OCCCO2 (centres undefined)
TGI (LOX IMVI melanoma): > 61.8 µM
TGI (DU-145 prostate): > 100 µM
TGI (CAKI-1 renal): > 100 µM
TGI (BT-549 breast): > 100 µM
TGI (OVCAR-5 ovarian): > 100 µM
TGI (SK-MEL-28 melanoma): > 100 µM
TGI (MDA-N): > 100 µM
TGI (HL-60(TB) leukemia): > 47.8 µM
TGI (COLO 205 colon): > 100 µM
TGI (HCC-2998 colon): > 100 µM
TGI (NCI-H23 lung): > 100 µM
TGI (SF-295 CNS): > 86.9 µM
TGI (UO-31 renal): > 100 µM
TGI (OVCAR-8 ovarian): > 100 µM
TGI (MALME-3M melanoma): > 100 µM
TGI (MDA-MB-435): > 100 µM
TGI (U251 CNS): > 100 µM

O/N=C(/C(Cl)=C(Cl)Cl)C(Cl)Cl
TGI (LOX IMVI melanoma): 37.3 µM
TGI (DU-145 prostate): 97.4 µM
TGI (CAKI-1 renal): 87.3 µM
TGI (BT-549 breast): 41.4 µM
TGI (OVCAR-5 ovarian): 49.4 µM
TGI (SK-MEL-28 melanoma): 30.2 µM
TGI (MDA-N): 32.8 µM
TGI (HL-60(TB) leukemia): 26.3 µM
TGI (COLO 205 colon): 44.2 µM
TGI (HCC-2998 colon): 79.6 µM
TGI (NCI-H23 lung): 30.7 µM
TGI (SF-295 CNS): 35.8 µM
TGI (UO-31 renal): 49 µM
TGI (OVCAR-8 ovarian): 66.8 µM
TGI (MALME-3M melanoma): 77.9 µM
TGI (MDA-MB-435): 33.1 µM
TGI (U251 CNS): 35.2 µM

O=C1c2c(O)cc(O)cc2C(C2OC(CO)C(O)C(O)C2O)c2cc(CO)cc(O)c21 (centres undefined)
TGI (DU-145 prostate): > 100 µM
TGI (BT-549 breast): > 100 µM
TGI (OVCAR-5 ovarian): > 100 µM
TGI (SK-MEL-28 melanoma): > 100 µM
TGI (HOP-92 NSCLC): > 100 µM
TGI (MDA-N): > 100 µM
TGI (HL-60(TB) leukemia): > 100 µM
TGI (COLO 205 colon): > 100 µM
TGI (HCC-2998 colon): > 100 µM
TGI (NCI-H23 lung): > 100 µM
TGI (SF-295 CNS): > 100 µM
TGI (UO-31 renal): > 100 µM
TGI (OVCAR-8 ovarian): > 100 µM
TGI (MALME-3M melanoma): > 100 µM
TGI (MDA-MB-435): > 100 µM
TGI (U251 CNS): > 100 µM

Cc1csc(NNC(N)=O)n1
TGI (LOX IMVI melanoma): > 100 µM
TGI (DU-145 prostate): > 100 µM
TGI (CAKI-1 renal): > 100 µM
TGI (BT-549 breast): > 100 µM
TGI (OVCAR-5 ovarian): > 100 µM
TGI (SK-MEL-28 melanoma): > 100 µM
TGI (HOP-92 NSCLC): > 100 µM
TGI (MDA-N): > 100 µM
TGI (HL-60(TB) leukemia): > 100 µM
TGI (COLO 205 colon): > 100 µM
TGI (HCC-2998 colon): > 100 µM
TGI (NCI-H23 lung): > 100 µM
TGI (SF-295 CNS): > 100 µM
TGI (UO-31 renal): > 100 µM
TGI (OVCAR-8 ovarian): > 100 µM
TGI (MDA-MB-435): > 100 µM
TGI (U251 CNS): > 100 µM

O=c1[nH]nc(-c2ccccc2)n1/N=C/c1ccco1
TGI (LOX IMVI melanoma): > 100 µM
TGI (DU-145 prostate): > 100 µM
TGI (CAKI-1 renal): > 100 µM
TGI (BT-549 breast): 94.2 µM
TGI (OVCAR-5 ovarian): > 100 µM
TGI (SK-MEL-28 melanoma): > 100 µM
TGI (HOP-92 NSCLC): > 100 µM
TGI (MDA-N): > 100 µM
TGI (HL-60(TB) leukemia): > 100 µM
TGI (COLO 205 colon): > 100 µM
TGI (NCI-H23 lung): > 100 µM
TGI (SF-295 CNS): > 100 µM
TGI (UO-31 renal): > 100 µM
TGI (OVCAR-8 ovarian): > 100 µM
TGI (MALME-3M melanoma): > 100 µM
TGI (MDA-MB-435): > 100 µM
TGI (U251 CNS): > 100 µM

CCOC(=O)/C(=C\NC(C)(C)C)c1nc2ccccc2[nH]1
TGI (LOX IMVI melanoma): 44.6 µM
TGI (DU-145 prostate): > 100 µM
TGI (CAKI-1 renal): 96.2 µM
TGI (BT-549 breast): 68.3 µM
TGI (OVCAR-5 ovarian): 55.9 µM
TGI (SK-MEL-28 melanoma): 34.6 µM
TGI (HOP-92 NSCLC): 56.8 µM
TGI (MDA-N): 52.8 µM
TGI (HL-60(TB) leukemia): 34 µM
TGI (COLO 205 colon): 33.7 µM
TGI (NCI-H23 lung): 35.9 µM
TGI (SF-295 CNS): 41.2 µM
TGI (UO-31 renal): 41.3 µM
TGI (OVCAR-8 ovarian): 64.2 µM
TGI (MALME-3M melanoma): 39.4 µM
TGI (MDA-MB-435): 38.6 µM

Cn1c2c(c3ccccc31)CCN=C2C1CCCOC1=O (centres undefined)
TGI (LOX IMVI melanoma): > 100 µM
TGI (DU-145 prostate): > 100 µM
TGI (CAKI-1 renal): > 100 µM
TGI (BT-549 breast): > 100 µM
TGI (OVCAR-5 ovarian): > 100 µM
TGI (SK-MEL-28 melanoma): > 100 µM
TGI (HOP-92 NSCLC): > 100 µM
TGI (MDA-N): > 100 µM
TGI (HL-60(TB) leukemia): > 100 µM
TGI (COLO 205 colon): > 100 µM
TGI (HCC-2998 colon): > 100 µM
TGI (UO-31 renal): > 100 µM
TGI (OVCAR-8 ovarian): > 100 µM
TGI (MALME-3M melanoma): > 100 µM
TGI (MDA-MB-435): > 100 µM
TGI (U251 CNS): > 100 µM

Cn1c(=O)c2sc3c4sc5c(=O)n(C)c6ccccc6c5c4sc3c2c2ccccc21
TGI (DU-145 prostate): > 100 µM
TGI (CAKI-1 renal): > 100 µM
TGI (BT-549 breast): > 100 µM
TGI (OVCAR-5 ovarian): > 100 µM
TGI (SK-MEL-28 melanoma): > 100 µM
TGI (HOP-92 NSCLC): > 100 µM
TGI (MDA-N): > 100 µM
TGI (HL-60(TB) leukemia): > 100 µM
TGI (COLO 205 colon): > 100 µM
TGI (HCC-2998 colon): > 100 µM
TGI (NCI-H23 lung): > 100 µM
TGI (UO-31 renal): > 100 µM
TGI (OVCAR-8 ovarian): > 100 µM
TGI (MALME-3M melanoma): > 100 µM
TGI (MDA-MB-435): > 100 µM
TGI (U251 CNS): > 100 µM
